From publication PMC8286840, “Identifying SARS-CoV-2 antiviral compounds by screening for small molecule inhibitors of Nsp3 papain-like protease” (Biochemical Journal, 2021)
Structures can show the parent of a compound that is named as a salt. Where two headings read alike, the source gives them in different places.

What was measured:
[1] = target: T1, SARS-CoV-2 PLpro (nsp3 1564–1878) (Severe acute respiratory syndrome coronavirus 2, UniProt P0DTD1); test: biochemical; design: FRET-quenched peptide (Pro3) cleavage by PLpro, 10 min pre-incubation, slope over 20 min, normalised to no-compound control; conditions: read-out: % of control remaining
[2] = target: T1, SARS-CoV-2 PLpro (nsp3 1564–1878); test: biochemical; design: FRET-quenched peptide (Pro3) cleavage by PLpro, 10 min pre-incubation, slope over 20 min, normalised to no-compound control; conditions: read-out: % of control remaining; remark: listed apart in the source

## CC(=O)O[C@H]1C[C@@]2(C)[C@@H](C[C@@H](O)[C@H]3[C@@]4(C)CC[C@@H](O)[C@@H](C)[C@@H]4CC[C@@]32C)/C1=C(\CCC=C(C)C)C(=O)O [Fusidic acid sodium]
[1]; Well no.=657, low concentration screen
  remaining activity at 1.25 µM: 104%
[2]; Well no.=657, high concentration screen
  remaining activity at 3.75 µM: 101%

## CC(C)(C)NC(=O)[C@H]1CC[C@H]2[C@@H]3CC[C@H]4NC(=O)C=C[C@]4(C)[C@H]3CC[C@]12C [Finasteride]
[1]; Well no.=2086, low concentration screen
  remaining activity at 1.25 µM: 99%
[2]; Well no.=2086, high concentration screen
  remaining activity at 3.75 µM: 104%

## COc1cc(Oc2ccnc3cc(OC)c(OC)cc23)ccc1NC(=O)NC(C)c1nccs1 (centres unmarked) [Ki20227]
[1]; Well no.=2935, low concentration screen
  remaining activity at 1.25 µM: 98.2%
[2]; Well no.=2935, high concentration screen
  remaining activity at 3.75 µM: 102%

## CC(C)N(CCCCOCC(=O)NS(C)(=O)=O)c1cnc(-c2ccccc2)c(-c2ccccc2)n1 [NS-304]
[1]; Well no.=6795, low concentration screen
  remaining activity at 1.25 µM: 97.6%
[2]; Well no.=6795, high concentration screen
  remaining activity at 3.75 µM: 94.6%

## Cc1ccc(N(CC2=NCCN2)c2cccc(O)c2)cc1 [Phentolamine]
[1]; Well no.=1635, low concentration screen
  remaining activity at 1.25 µM: 105%
[2]; Well no.=1635, high concentration screen
  remaining activity at 3.75 µM: 105%

## O=C(c1cc(S(=O)(=O)Nc2ccccc2F)c(F)cc1Cl)N1CCN2CCC[C@@H]2C1 [ABT-639]
[1]; Well no.=7880, low concentration screen
  remaining activity at 1.25 µM: 94.2%
[2]; Well no.=7880, high concentration screen
  remaining activity at 3.75 µM: 95.4%

## Nc1ncnc2c1c(I)cn2[C@@H]1O[C@H](CO)[C@@H](O)[C@H]1O [5-Iodotubercidin]
[1]; Well no.=2479, low concentration screen
  remaining activity at 1.25 µM: 100%
[2]; Well no.=2479, high concentration screen
  remaining activity at 3.75 µM: 101%

## CC(C)CNCc1ccc(-c2ccccc2S(=O)(=O)N2CCCC2)cc1 [PF-04455242 hydrochloride]
[1]; Well no.=5775, low concentration screen
  remaining activity at 1.25 µM: 106%
[2]; Well no.=5775, high concentration screen
  remaining activity at 3.75 µM: 107%

## CC1(C)S[C@@H]2[C@H](NC(=O)[C@H](N)c3ccc(O)cc3)C(=O)N2[C@H]1C(=O)O [Amoxicillin (trihydrate)]
[1]; Well no.=8222, low concentration screen
  remaining activity at 1.25 µM: 99.5%
[2]; Well no.=8222, high concentration screen
  remaining activity at 3.75 µM: 96.8%

## CC(C)(C)[C@]1(O)CCN2C[C@H]3c4ccccc4CCc4cccc(c43)[C@@H]2C1 [(+)-Butaclamol hydrochloride]
[1]; Well no.=732, low concentration screen
  remaining activity at 1.25 µM: 98.3%
[2]; Well no.=732, high concentration screen
  remaining activity at 3.75 µM: 98.3%

## Cn1nc2c3c(cccc31)C(=O)c1ccccc1-2 [JNK Inhibitor, Negative Control]
[1]; Well no.=2514, low concentration screen
  remaining activity at 1.25 µM: 91%
[2]; Well no.=2514, high concentration screen
  remaining activity at 3.75 µM: 92.4%

## O=C(O)c1ccc(-c2c[nH]c3ncc(-c4ccccc4)cc23)cc1C1CCCC1 [2-cyclopentyl-4-(5-phenyl-1H-pyrrolo[2,3-b]pyridin-3-yl)benzoic acid]
[1]; Well no.=5864, low concentration screen
  remaining activity at 1.25 µM: 93%
[2]; Well no.=5864, high concentration screen
  remaining activity at 3.75 µM: 94.4%

## CC(C)(C)NCC(O)c1ccc(O)c(CO)c1 (centres unmarked) [Salbutamol]
[1]; Well no.=1366, low concentration screen
  remaining activity at 1.25 µM: 101%
[2]; Well no.=1366, high concentration screen
  remaining activity at 3.75 µM: 101%

## C[C@@H](CN1CCC(Cc2ccccc2)CC1)[C@@H](O)c1ccc(O)cc1 [Ro 25-6981 hydrochloride]
[1]; Well no.=1350, low concentration screen
  remaining activity at 1.25 µM: 99.4%
[2]; Well no.=1350, high concentration screen
  remaining activity at 3.75 µM: 102%

## CC[C@H]1CN2CCc3cc(OC)c(OC)cc3[C@@H]2C[C@@H]1C[C@H]1NCCc2cc(O)c(OC)cc21
[1]; Well no.=3501, low concentration screen
  remaining activity at 1.25 µM: 96.1%
[2]; Well no.=3501, high concentration screen
  remaining activity at 3.75 µM: 88.7%

## CCCCc1c(-c2ccc(O)cc2)[nH]c2nccnc12 [Aloisine A, RP107]
[1]; Well no.=2318, low concentration screen
  remaining activity at 1.25 µM: 97.4%
[2]; Well no.=2318, high concentration screen
  remaining activity at 3.75 µM: 95.3%

## Nc1nc(N)c2nc(-c3cccc(O)c3)c(-c3cccc(O)c3)nc2n1 [TG100-115]
[1]; Well no.=4846, low concentration screen
  remaining activity at 1.25 µM: 99.1%
[2]; Well no.=4846, high concentration screen
  remaining activity at 3.75 µM: 99.1%

## COc1ccc(-c2cccc(C(=O)N(C)C)c2)cc1S(=O)(=O)Nc1cccc(NCCNC(=O)c2cccc(C)c2)c1 [Orexin 2 Receptor Agonist]
[1]; Well no.=6951, low concentration screen
  remaining activity at 1.25 µM: 105%
[2]; Well no.=6951, high concentration screen
  remaining activity at 3.75 µM: 103%

## C[N+]1(C)[C@@H]2CC[C@H]1C[C@@H](OC(=O)C(O)c1ccccc1)C2 (some centres unmarked) [Homatropine Methylbromide]
[1]; Well no.=5080, low concentration screen
  remaining activity at 1.25 µM: 98.2%
[2]; Well no.=5080, high concentration screen
  remaining activity at 3.75 µM: 101%

## O=C(O)c1ccc(C(=O)O)cc1 [Terephthalic acid]
[1]; Well no.=7501, low concentration screen
  remaining activity at 1.25 µM: 106%
[2]; Well no.=7501, high concentration screen
  remaining activity at 3.75 µM: 103%

## Fc1ccc(C(OCCN2CCN(CCCc3ccccc3)CC2)c2ccc(F)cc2)cc1 [GBR-12909 dihydrochloride]
[1]; Well no.=590, low concentration screen
  remaining activity at 1.25 µM: 98.5%
[2]; Well no.=590, high concentration screen
  remaining activity at 3.75 µM: 98.5%

## COc1cc(F)c(C(C)C)cc1-c1ccc(C(F)(F)F)cc1CN1C(=O)O[C@H](c2cc(C(F)(F)F)cc(C(F)(F)F)c2)[C@@H]1C [Anacetrapib (MK-0859)]
[1]; Well no.=5312, low concentration screen
  remaining activity at 1.25 µM: 94.2%
[2]; Well no.=5312, high concentration screen
  remaining activity at 3.75 µM: 93.1%

## CCC/N=C1\S/C(=C\c2ccc(OC[C@H](O)CO)c(Cl)c2)C(=O)N1c1ccccc1C [Ponesimod]
[1]; Well no.=8001, low concentration screen
  remaining activity at 1.25 µM: 106%
[2]; Well no.=8001, high concentration screen
  remaining activity at 3.75 µM: 102%

## CCC1(c2c[nH]cn2)Cc2ccccc2C1 [Atipamezole (hydrochloride)]
[1]; Well no.=7481, low concentration screen
  remaining activity at 1.25 µM: 102%
[2]; Well no.=7481, high concentration screen
  remaining activity at 3.75 µM: 98.7%

## CC(=O)Oc1cc(C(C)C)c(OCCN(C)C)cc1C [Moxisylyte hydrochloride]
[1]; Well no.=976, low concentration screen
  remaining activity at 1.25 µM: 103%
[2]; Well no.=976, high concentration screen
  remaining activity at 3.75 µM: 101%

## CN(C)CCCn1cc(C2=C(c3c[nH]c4ccccc34)C(=O)NC2=O)c2ccccc21 [Bisindolylmaleimide I]
[1]; Well no.=2325, low concentration screen
  remaining activity at 1.25 µM: 97.2%
[2]; Well no.=2325, high concentration screen
  remaining activity at 3.75 µM: 98.8%

## C=CCc1ccccc1OCC(O)CNC(C)C (centres unmarked) [Alprenolol (hydrochloride)]
[1]; Well no.=6327, low concentration screen
  remaining activity at 1.25 µM: 102%
[2]; Well no.=6327, high concentration screen
  remaining activity at 3.75 µM: 103%

## O=C(Nc1ccccc1Br)N[C@@H]1CCN(c2ccc(C(F)(F)F)cn2)C1 [SB705498]
[1]; Well no.=4735, low concentration screen
  remaining activity at 1.25 µM: 103%
[2]; Well no.=4735, high concentration screen
  remaining activity at 3.75 µM: 106%

## Cc1cc(=O)[nH]c(=S)[nH]1 [Methylthiouracil]
[1]; Well no.=4973, low concentration screen
  remaining activity at 1.25 µM: 99.9%
[1]; Well no.=6148, low concentration screen
  remaining activity at 1.25 µM: 98.5%
[2]; Well no.=4973, high concentration screen
  remaining activity at 3.75 µM: 98.5%
[2]; Well no.=6148, high concentration screen
  remaining activity at 3.75 µM: 102%

## C#Cc1cccc(Nc2ncnc3cc4c(cc23)OCCOCCOCCO4)c1 [Icotinib]
[1]; Well no.=5229, low concentration screen
  remaining activity at 1.25 µM: 92.9%
[2]; Well no.=5229, high concentration screen
  remaining activity at 3.75 µM: 88.7%

## NC(=O)NCCCC[C@H](N)C(=O)O [L-Homocitrulline]
[1]
  remaining activity at 1.25 µM: 101%
[2]
  remaining activity at 3.75 µM: 89.3%

## Cc1c(C(=O)Nc2cccc(C(F)(F)F)c2)cc(-c2ccccc2)n1CCCN1CCOCC1 [HC-067047]
[1]; Well no.=5409, low concentration screen
  remaining activity at 1.25 µM: 102%
[2]; Well no.=5409, high concentration screen
  remaining activity at 3.75 µM: 103%

## CCCCC/C=C\C=C\[C@H](CCCCCCCC(=O)O)OO [9(S)-HPODE]
[1]; Well no.=4386, low concentration screen
  remaining activity at 1.25 µM: 97.7%
[2]; Well no.=4386, high concentration screen
  remaining activity at 3.75 µM: 98%

## CC(=O)C1=C(O)C(=O)N(c2ccc(Cl)cc2F)[C@@H]1C1CCCCC1 [CCR2-RA-[R]]
[1]; Well no.=8118, low concentration screen
  remaining activity at 1.25 µM: 100%
[1]; Well no.=8229, low concentration screen
  remaining activity at 1.25 µM: 96.6%
[2]; Well no.=8118, high concentration screen
  remaining activity at 3.75 µM: 95.9%
[2]; Well no.=8229, high concentration screen
  remaining activity at 3.75 µM: 91.4%

## N=c1c[n+](N2CCOCC2)[n-]o1 [3-Morpholinosydnonimine hydrochloride]
[1]; Well no.=1041, low concentration screen
  remaining activity at 1.25 µM: 102%
[2]; Well no.=1041, high concentration screen
  remaining activity at 3.75 µM: 103%
